Patent US10874108B2, “Anti-microbial compositions” (5D HEALTH PROTECTION GROUP LTD, priority 2016, dated 2020)
“And” between values parts separate entries of the source, which are not always exact repeats. Equal entries are not always repeated.

Assays:
[1] = test system: P. aeruginosa biofilms; test: MBEC plate 48-hour biofilm, liquid EDTA-Ag2-Zn compound; format: cell-based
Source text: Biofilms were formed using the MBEC plate method. Log reduction (LR) values are expressed with standard error. N.D (not determined) is stated when no colonies were detected upon enumeration.

[2] = test system: E. faecalis ATCC 29212 biofilm; test: MBEC model (ASTM E2799), liquid formulas; format: cell-based; conditions: treated 24 hours
Procedure: (§1) The MBEC model (ASTM E2799) was used to assess the anti-biofilm efficacy of the liquid formulas. Biofilms were grown on polystyrene pegs in the MBEC model for either 24 or 48 hours before treatment. Using the liquid form of the EDTA complexes 24- and 48-hour biofilms were tested (Table 20).
(§2) 24- and 48-hour biofilms were formed using MBEC plate method and treated for 24 hours. Technical replicates n=3. Log reduction (LR) values show±standard error (SE) of LR value.

[3] = test system: P. aeruginosa NCTC 10662 biofilm; test: MBEC model (ASTM E2799), liquid formulas; format: cell-based; conditions: treated 24 hours
Procedure: as §1, §2

[4] = test system: S. aureus ATCC 29213 biofilm; test: MBEC model (ASTM E2799), liquid formulas; format: cell-based; conditions: treated 24 hours
Procedure: as §1, §2

[5] = test system: S. aureus MRSA BAA-43 biofilm; test: MBEC model (ASTM E2799), liquid formulas; format: cell-based; conditions: treated 24 hours
Procedure: as §1, §2

[6] = test system: S. epidermidis ATCC 35984 biofilm; test: MBEC model (ASTM E2799), liquid formulas; format: cell-based; conditions: treated 24 hours
Procedure: as §1, §2

[7] = test system: S. aureus wound biofilm; test: Wound biofilm model (Labskin), histological examination; format: cell-based; conditions: 100 ppm; day 6; vs untreated S. aureus wound biofilm
[8] = test system: interleukin-6 (IL-6); test: IL-6 ELISA, wounded biofilm-containing Labskin; format: cell-based; conditions: 100 ppm; vs S. aureus wound biofilm control
Source text: Enzyme-linked immunosorbent assay (ELISA) was used to assess the secreted levels of the inflammatory cytokine interleukin-6 (IL-6) according to previously published methods (Foster, A. M., Baliwag, J., Chen, C. S., Guzman, A. M., Stoll, S. W., Gudjonsson, J. E., Ward, N. L. & Johnston, A. 2014, IL-36 promotes myeloid cell infiltration, activation, and inflammatory activity in skin, The Journal of Immunology, 192, 6053-6061). […] The IL-6 levels were reduced further when compared to the S. aureus wound biofilm control.
ELISA was used to assess the levels of IL-6 in conditioned cell culture medium. Culture medium was changed at day 4, which accounts for the reduction in IL-6. […] Tests were performed in duplicate. Error bars indicate standard deviation.

[9] = test system: cells; test: Direct cytotoxicity, Neutral Red Uptake assay

`O=C([O-])CN(CCN(CC(=O)[O-])CC(=O)[O-])CC(=O)[O-].[Ag+].[Ag+].[Zn+2]` [Compound 4, Ag2ZnEDTA] was tested, and the “% Kill” value ([1]; 500 ppm, treatment 24 hours) was 100%, the “% Kill” value ([1]; 1000 ppm, treatment 1 hours) was 100% and the “% Kill” value ([1]; 1000 ppm, treatment 24 hours) was 100%. For the same molecule, the Kill % ([2]; 50 ppm, 24-Hour Biofilm) was 100%, the LR ([2]; 50 ppm, 24-Hour Biofilm) was 6.35 and the Kill % ([2]; 50 ppm, 48-Hour Biofilm) was 100%. The LR ([2]; 50 ppm, 48-Hour Biofilm) was 6.40, the Kill % ([2]; 100 ppm, 24-Hour Biofilm) was 100% and the LR ([2]; 100 ppm, 24-Hour Biofilm) was 6.35. For the same molecule, the Kill % ([2]; 100 ppm, 48-Hour Biofilm) was 100%, the LR ([2]; 100 ppm, 48-Hour Biofilm) was 6.40 and the Kill % ([3]; 50 ppm, 24-Hour Biofilm) was 100%. The LR ([3]; 50 ppm, 24-Hour Biofilm) was 7.44, the Kill % ([3]; 50 ppm, 48-Hour Biofilm) was 100% and the LR ([3]; 50 ppm, 48-Hour Biofilm) was 8.44. For the same molecule, the Kill % ([3]; 100 ppm, 24-Hour Biofilm) was 100%, the LR ([3]; 100 ppm, 24-Hour Biofilm) was 7.44 and the Kill % ([3]; 100 ppm, 48-Hour Biofilm) was 100%. For the same molecule, the LR ([3]; 100 ppm, 48-Hour Biofilm) was 8.44, the Kill % ([4]; 50 ppm, 24-Hour Biofilm) was 100% and the LR ([4]; 50 ppm, 24-Hour Biofilm) was 6.44. For the same molecule, the Kill % ([4]; 50 ppm, 48-Hour Biofilm) was 100%, the LR ([4]; 50 ppm, 48-Hour Biofilm) was 6.50 and the Kill % ([4]; 100 ppm, 24-Hour Biofilm) was 100%. The LR ([4]; 100 ppm, 24-Hour Biofilm) was 6.44, the Kill % ([4]; 100 ppm, 48-Hour Biofilm) was 100% and the LR ([4]; 100 ppm, 48-Hour Biofilm) was 6.50. It also gave a Kill % ([5]; 50 ppm, 24-Hour Biofilm) of 100%, an LR ([5]; 50 ppm, 24-Hour Biofilm) of 5.40 and a Kill % ([5]; 50 ppm, 48-Hour Biofilm) of 100%. The LR ([5]; 50 ppm, 48-Hour Biofilm) was 6.43, the Kill % ([5]; 100 ppm, 24-Hour Biofilm) was 100% and the LR ([5]; 100 ppm, 24-Hour Biofilm) was 5.40. For the same molecule, the Kill % ([5]; 100 ppm, 48-Hour Biofilm) was 100%, the LR ([5]; 100 ppm, 48-Hour Biofilm) was 6.43 and the Kill % ([6]; 50 ppm, 24-Hour Biofilm) was 100%. It also gave an LR ([6]; 50 ppm, 24-Hour Biofilm) of 6.09, a Kill % ([6]; 50 ppm, 48-Hour Biofilm) of 100% and an LR ([6]; 50 ppm, 48-Hour Biofilm) of 6.41. It also gave a Kill % ([6]; 100 ppm, 24-Hour Biofilm) of 100%, an LR ([6]; 100 ppm, 24-Hour Biofilm) of 6.09 and a Kill % ([6]; 100 ppm, 48-Hour Biofilm) of 100%. The LR ([6]; 100 ppm, 48-Hour Biofilm) was 6.41, the “amount of microorganisms within the tissues (histology)” value [7] was “reduced amount of microorganisms within the tissues” and the “secreted IL-6 (inflammatory marker)” value [8] was “significant reduction”. For the same molecule, the Interpretation ([9]; 25 ppm) was “Cytotoxic (if the percentage viability is less than 70% of the untreated control, then the substance is considered cytotoxic)”, the “Percentage of Control/Percentage Viability (%)” value ([9]; 25 ppm) was 62.67 ± 20.39% and the Interpretation ([9]; 50 ppm) was “Non cytotoxic (if the percentage viability is less than 70% of the untreated control, then the substance is considered cytotoxic)”. The “Percentage of Control/Percentage Viability (%)” value ([9]; 50 ppm) was 72.93% and 72.93 ± 12.90%, the Interpretation ([9]; 100 ppm) was “Cytotoxic (if the percentage viability is less than 70% of the untreated control, then the substance is considered cytotoxic)” and the “Percentage of Control/Percentage Viability (%)” value ([9]; 100 ppm) was 56.41 ± 1.83%.
